This is an account of results in patent US20240066087A1, “SUTHERLANDIA EXTRACT AND THE USE THEREOF IN THE MANUFACTURE OF A MEDICAMENT” (ACUPHARM INTERNATIONAL PROPRIETARY LIMITED, priority 2020, published 2024).

The structures appear in SMILES notation.

The test relates to cultured tissue from needle biopsy, Breast DCIS papillary neoplasm. The test is described as follows: dose response study with cumulative cell death on cultured patient biopsy tissue (patient 19055). It is filed as cell-based, human. As to conditions: in vitro cultured biopsy sample, patient 19055, Breast DCIS papillary neoplasm. As to the method:
Comparative studies were performed using Sutherlandia leaf extract in water (referred to as ACPJL35), Sutherlandia leaf extract in 50% ethanol and water solution (referred to as ACPJL28), and Sutherlandia leaf extract in 90% ethanol and water solution (referred to as ACPJL07). These extracts were compared to a number of known botanical isolates with anti-cancer activity, as well as a number of known anti-cancer drugs, using a dose response design with cumulative cell death as the dependent variable. These studies were conducted on in vitro samples of cultured tissue, taken as biopsy samples from patients as part of a standard culture and testing process done in order to optimise treatment.
Patient from whom sample was obtained was a person presenting with a diagnosis of Breast DCIS papillary neoplasm. The sample was obtained via needle biopsy, before being cultured.

Turning to `COc1cc2c(Oc3ccc4[nH]c(C)cc4c3F)ncnc2cc1OCCCN1CCCC1` [Cediranib], the “efficacy assessment from dose response (dose-CR curve), cumulative cell death as dependent variable” value was “having potential benefit”.
Under `Nc1nc(Cl)nc2c1ncn2[C@@H]1O[C@H](CO)[C@@H](O)[C@@H]1F` [Clofarabine] stands “having potential benefit”; under `CC(=O)O[C@@]12CO[C@@H]1C[C@H](O)[C@@]1(C)C(=O)[C@H](O)C3=C(C)[C@@H](OC(=O)[C@H](O)[C@@H](NC(=O)OC(C)(C)C)c4ccccc4)C[C@@](O)([C@@H](OC(=O)c4ccccc4)[C@H]21)C3(C)C` [Docetaxel], “having potential benefit”.
With `COc1cc2ncnc(Nc3ccc(F)c(Cl)c3)c2cc1OCCCN1CCOCC1` [Gefitinib] the entry was “having potential benefit”; with `O=C1c2c(O)ccc(O)c2C(=O)c2c(NCCNCCO)ccc(NCCNCCO)c21` [Mitoxantrone], “having potential benefit”.
In the case of `COC(=O)c1ccc2c(c1)NC(=O)/C2=C(\Nc1ccc(N(C)C(=O)CN2CCN(C)CC2)cc1)c1ccccc1` [Nintedanib], the “efficacy assessment from dose response (dose-CR curve), cumulative cell death as dependent variable” value was “good efficacy and a positive dose response curve”.
Under `CC(=O)O[C@H]1C(=O)[C@@]2(C)[C@H]([C@H](OC(=O)c3ccccc3)[C@]3(O)C[C@H](OC(=O)[C@H](O)[C@@H](NC(=O)c4ccccc4)c4ccccc4)C(C)=C1C3(C)C)[C@]1(OC(C)=O)CO[C@@H]1C[C@@H]2O` [Paclitaxel] stands “having potential benefit”; under `CC[C@]1(O)C[C@H]2CN(CCc3c([nH]c4ccccc34)[C@@](C(=O)OC)(c3cc4c(cc3OC)N(C=O)[C@H]3[C@@](O)(C(=O)OC)[C@H](OC(C)=O)[C@]5(CC)C=CCN6CC[C@]43[C@@H]65)C2)C1` [Vincristine], “having potential benefit”; under `CCC1=C[C@@H]2CN(C1)Cc1c([nH]c3ccccc13)[C@@](C(=O)OC)(c1cc3c(cc1OC)N(C)[C@H]1[C@@](O)(C(=O)OC)[C@H](OC(C)=O)[C@]4(CC)C=CCN5CC[C@]31[C@@H]54)C2` [Vinorelbine], “having potential benefit”.
With `O=C(CCCCCCC(=O)Nc1ccccc1)NO` [Vorinostat] the entry was “having potential benefit”.
